According to patent US10385022B2, “3-amino-pyridines as GPBAR1 agonists” (HOFFMANN-LA ROCHE INC., priority 2011, dated 2019):
pEC50: −log10 of the molar value.

Molecular target: human GPBAR1 receptor (Homo sapiens (Human), UniProt Q8TDU6)
Experiment: functional cAMP assay in CHO-dhfr(minus) cells expressing human GPBAR1 receptors
Format: cell-based
Details: CHO-dhfr(minus) cells expressing human GPBAR1, 30 min at 30° C.
Experimental: The final clone was verified by DNA sequence analysis. The plasmid was transfected into CHO cells deficient in dihydrofolate reductase activity (CHO-dhfr-) using Lipofectamine plus (Invitrogen). Clones were isolated in limited dilution conditions and identified by activities in the cAMP assay using lithocholic acid as agonist.
EC50 values were determined using Activity Base analysis (ID Business Solution, Limited). […] Specificity for GPBAR1 was tested in non-transfected CHO cells in the same assay as above.

human GPBAR1 receptor, sequence (Q8TDU6 whole entry): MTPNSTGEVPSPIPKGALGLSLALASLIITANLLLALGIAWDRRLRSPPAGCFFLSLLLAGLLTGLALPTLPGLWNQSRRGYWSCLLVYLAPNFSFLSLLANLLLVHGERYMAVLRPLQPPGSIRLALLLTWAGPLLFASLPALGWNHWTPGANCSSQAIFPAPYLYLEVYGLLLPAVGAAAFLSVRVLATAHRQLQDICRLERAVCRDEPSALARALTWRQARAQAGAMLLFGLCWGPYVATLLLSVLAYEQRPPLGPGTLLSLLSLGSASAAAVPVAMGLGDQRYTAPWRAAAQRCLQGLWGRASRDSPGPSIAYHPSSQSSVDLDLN

| SMILES | pEC50 |
| --- | --- |
| CN(C(=O)c1cc(C(F)(F)F)cc(C(F)(F)F)c1)c1cnc(Cl)cc1-c1ncccc1Cl [Example 73, N-(3,6′-Dichloro-[2,4′]bipyridinyl-3′-yl)-N-methyl-3,5-bis-trifluoromethyl-benzamide] | 5.74 |
| CN(C(=O)c1cc(CO)cc(C(F)(F)F)c1)c1cnccc1-c1ccccc1Cl [Example 76, N-[4-(2-Chloro-phenyl)-pyridin-3-yl]-3-hydroxymethyl-N-methyl-5-trifluoromethyl-benzamide] | 5.71 |
| CN(C(=O)c1cc(C(C)(C)O)cc(C(F)(F)F)c1)c1cnccc1-c1ccccc1Cl [Example 77, N-[4-(2-Chloro-phenyl)-pyridin-3-yl]-3-(1-hydroxy-1-methyl-ethyl)-N-methyl-5-trifluoromethyl-benzamide] | 6.15 |
| CN(C(=O)c1cc(O)cc(C(F)(F)F)c1)c1cnccc1-c1ccccc1Cl [Example 79, N-[4-(2-Chloro-phenyl)-pyridin-3-yl]-3-hydroxy-N-methyl-5-trifluoromethyl-benzamide] | 5.86 |
| CN(C(=O)c1ccc(Br)c(C(F)(F)F)c1)c1cnccc1-c1ccccc1Cl [Example 80, 4-Bromo-N-[4-(2-chloro-phenyl)-pyridin-3-yl]-N-methyl-3-trifluoromethyl-benzamide] | 6.52 |
| Cc1ccc(C(=O)O)cc1-c1ccncc1N(C)C(=O)c1cc(C(F)(F)F)cc(C(F)(F)F)c1 [Example 84, 3-{3-[(3,5-Bis-trifluoromethyl-benzoyl)-methyl-amino]-pyridin-4-yl}-4-methyl-benzoic acid] | 5.70 |
| O=C(c1cc(C(F)(F)F)cc(C(F)(F)F)c1)N(CC1CC1)c1cnccc1-c1ccccc1Cl [Example 86, N-[4-(2-Chloro-phenyl)-pyridin-3-yl]-N-cyclopropylmethyl-3,5-bis-trifluoromethyl-benzamide] | 6.57 |
| COC(=O)CN(C(=O)c1cc(C(F)(F)F)cc(C(F)(F)F)c1)c1cnccc1-c1ccccc1Cl [Example 88, {(3,5-Bis-trifluoromethyl-benzoyl)-[4-(2-chloro-phenyl)-pyridin-3-yl]-amino}-acetic acid methyl ester] | 7.18 |
| CN(C(=O)c1cc(C(F)(F)F)cc(C(F)(F)F)c1)c1cnccc1-c1ccccc1CCO [Example 93, N-{4-[2-(2-Hydroxy-ethyl)-phenyl]-pyridin-3-yl}-N-methyl-3,5-bis-trifluoromethyl-benzamide] | 5.65 |
| Cc1ccccc1-c1ccncc1N(C)C(=O)c1ccc(Cl)c(C(F)(F)F)c1 [Example 95, 4-Chloro-N-methyl-N-(4-o-tolyl-pyridin-3-yl)-3-trifluoromethyl-benzamide] | 7.04 |
| Cc1cc(C)cc(C(=O)N(C)c2cnccc2-c2ccccc2C)c1 [Example 96, 3,5,N-Trimethyl-N-(4-o-tolyl-pyridin-3-yl)-benzamide] | 6.90 |
| Cc1ccccc1-c1ccncc1N(C)C(=O)c1ccc(C(F)(F)F)c(Cl)c1 [Example 97, 3-Chloro-N-methyl-N-(4-o-tolyl-pyridin-3-yl)-4-trifluoromethyl-benzamide] | 6.14 |
| COc1cccc(-c2ccncc2N(C)C(=O)c2cc(C(F)(F)F)cc(C(F)(F)F)c2)n1 [Example 98, N-(6-Methoxy-[2,4′]bipyridinyl-3′-yl)-N-methyl-3,5-bis-trifluoromethyl-benzamide] | 6.96 |
| CNC(=O)CN(C(=O)c1cc(C(F)(F)F)cc(C(F)(F)F)c1)c1cnccc1-c1ccccc1Cl [Example 102, N-[4-(2-Chloro-phenyl)-pyridin-3-yl]-N-methylcarbamoylmethyl-3,5-bis-trifluoromethyl-benzamide] | 6.84 |
| Cc1ccccc1-c1ccncc1N(C)C(=O)c1cc(F)cc(Cl)c1 [Example 103, 3-Chloro-5-fluoro-N-methyl-N-(4-o-tolyl-pyridin-3-yl)-benzamide] | 6.48 |
| Cc1cccc(-c2ccncc2N(C)C(=O)c2cc(C(F)(F)F)cc(C(F)(F)F)c2)c1C [Example 105, N-[4-(2,3-Dimethyl-phenyl)-pyridin-3-yl]-N-methyl-3,5-bis-trifluoromethyl-benzamide] | 6.31 |
| CN(C(=O)c1cc(C(F)(F)F)cc(C(F)(F)F)c1)c1cnccc1-c1cccnc1OCC(F)(F)F [Example 106, N-Methyl-N-[2-(2,2,2-trifluoro-ethoxy)-[3,4′]bipyridinyl-3′-yl]-3,5-bis-trifluoromethyl-benzamide] | 7.37 |
| Cc1cc(C(=O)N(C)c2cnccc2-c2ccccc2C)cc(C(F)(F)F)c1 [Example 108, 3,N-Dimethyl-N-(4-o-tolyl-pyridin-3-yl)-5-trifluoromethyl-benzamide] | 7.15 |
| Cc1ccccc1-c1ccncc1N(C)C(=O)c1cc(Cl)cc(C(F)(F)F)c1 [Example 109, 3-Chloro-N-methyl-N-(4-o-tolyl-pyridin-3-yl)-5-trifluoromethyl-benzamide] | 7.66 |
| CN(C(=O)c1cc(C(F)(F)F)cc(C(F)(F)F)c1)c1cnccc1-c1cccc(Cl)c1F [Example 111, N-[4-(3-Chloro-2-fluoro-phenyl)-pyridin-3-yl]-N-methyl-3,5-bis-trifluoromethyl-benzamide] | 6.59 |
| Cc1ccccc1-c1cc(-c2ccc[nH]2)ncc1N(C)C(=O)c1cc(C(F)(F)F)cc(C(F)(F)F)c1 [Example 113, N-Methyl-N-[6-(1H-pyrrol-2-yl)-4-o-tolyl-pyridin-3-yl]-3,5-bis-trifluoromethyl-benzamide] | 5.70 |

More lines, in order of rising pEC50, values ahead:

| pEC50 | SMILES |
| --- | --- |
| 5.53 | COc1ccc(-c2ccncc2N(C)C(=O)c2cc(C(F)(F)F)cc(C(F)(F)F)c2)cn1 [Example 99, N-(6-Methoxy-[3,4′]bipyridinyl-3′-yl)-N-methyl-3,5-bis-trifluoromethyl-benzamide] |
| 5.56 | Cc1ccccc1-c1ccncc1N(C)C(=O)c1ccc(C(F)(F)F)cc1 [Example 90, N-Methyl-N-(4-o-tolyl-pyridin-3-yl)-4-trifluoromethyl-benzamide] |
| 5.67 | Cc1ccccc1-c1ccncc1N(C)C(=O)c1ccc(C(F)(F)F)c(F)c1 [Example 94, 3-Fluoro-N-methyl-N-(4-o-tolyl-pyridin-3-yl)-4-trifluoromethyl-benzamide] |
| 5.78 | Cc1ccccc1-c1ccncc1N(C)C(=O)c1cc(F)c(F)c(F)c1 [Example 104, 3,4,5-Trifluoro-N-methyl-N-(4-o-tolyl-pyridin-3-yl)-benzamide] |
| 6.34 | COC(=O)c1cc(C(=O)N(C)c2cnccc2-c2ccccc2Cl)cc(C(F)(F)F)c1 [Example 75, N-[4-(2-Chloro-phenyl)-pyridin-3-yl]-N-methyl-5-trifluoromethyl-isophthalamic acid methyl ester] |
| 6.42 | COC(=O)c1ccc(C)c(-c2ccncc2N(C)C(=O)c2cc(C(F)(F)F)cc(C(F)(F)F)c2)c1 [Example 83, 3-{3-[(3,5-Bis-trifluoromethyl-benzoyl)-methyl-amino]-pyridin-4-yl}-4-methyl-benzoic acid methyl ester] |
| 6.53 | Cc1ccccc1-c1ccncc1N(C)C(=O)c1ccc(C(F)(F)F)c(C(F)(F)F)c1 [Example 101, N-Methyl-N-(4-o-tolyl-pyridin-3-yl)-3,4-bis-trifluoromethyl-benzamide] |
| 6.63 | CS(=O)(=O)CCN(C(=O)c1cc(C(F)(F)F)cc(C(F)(F)F)c1)c1cnccc1-c1ccccc1Cl [Example 112, N-[4-(2-Chloro-phenyl)-pyridin-3-yl]-N-(2-methanesulfonyl-ethyl)-3,5-bis-trifluoromethyl-benzamide] |
| 6.63 | COc1ccc(C(=O)N(C)c2cnccc2-c2ccccc2C)cc1C(F)(F)F [Example 92, 4-Methoxy-N-methyl-N-(4-o-tolyl-pyridin-3-yl)-3-trifluoromethyl-benzamide] |
| 6.63 | Cc1ccc(Cl)cc1-c1ccncc1N(C)C(=O)c1cc(C(F)(F)F)cc(C(F)(F)F)c1 [Example 82, N-[4-(5-Chloro-2-methyl-phenyl)-pyridin-3-yl]-N-methyl-3,5-bis-trifluoromethyl-benzamide] |
| 6.68 | Cc1ccccc1-c1ccncc1N(C)C(=O)c1cc(Cl)cc(OC(F)(F)F)c1 [Example 100, 3-Chloro-N-methyl-N-(4-o-tolyl-pyridin-3-yl)-5-trifluoromethoxy-benzamide] |
| 6.70 | O=C(c1cc(C(F)(F)F)cc(C(F)(F)F)c1)N(CC(F)(F)F)c1cnccc1-c1ccccc1Cl [Example 85, N-[4-(2-Chloro-phenyl)-pyridin-3-yl]-N-(2,2,2-trifluoro-ethyl)-3,5-bis-trifluoromethyl-benzamide] |
| 6.82 | Cc1ccccc1-c1ccncc1N(C)C(=O)c1ccc(C)c(C(F)(F)F)c1 [Example 91, 4,N-Dimethyl-N-(4-o-tolyl-pyridin-3-yl)-3-trifluoromethyl-benzamide] |
| 6.82 | O=C(c1cc(C(F)(F)F)cc(C(F)(F)F)c1)N(CCF)c1cnccc1-c1ccccc1Cl [Example 110, N-[4-(2-Chloro-phenyl)-pyridin-3-yl]-N-(2-fluoro-ethyl)-3,5-bis-trifluoromethyl-benzamide] |
| 7.47 | CN(C(=O)c1cc(Br)cc(C(F)(F)F)c1)c1cnccc1-c1ccccc1Cl [Example 74, 3-Bromo-N-[4-(2-chloro-phenyl)-pyridin-3-yl]-N-methyl-5-trifluoromethyl-benzamide] |
| 7.52 | Cc1ccccc1-c1ccncc1N(C)C(=O)c1cc(C(F)(F)F)cc(S(C)(=O)=O)c1 [Example 114, 3-Methanesulfonyl-N-methyl-N-(4-o-tolyl-pyridin-3-yl)-5-trifluoromethyl-benzamide] |
| 7.68 | CN(C(=O)c1cc(C(F)(F)F)cc(C(F)(F)F)c1)c1cnccc1-c1ccccc1Cl [Example 78, N-[4-(2-Chloro-phenyl)-pyridin-3-yl]-N-methyl-3,5-bis-trifluoromethyl-benzamide] |
| 8.10 | COCCN(C(=O)c1cc(C(F)(F)F)cc(C(F)(F)F)c1)c1cnccc1-c1ccccc1Cl [Example 89, N-[4-(2-Chloro-phenyl)-pyridin-3-yl]-N-(2-methoxy-ethyl)-3,5-bis-trifluoromethyl-benzamide] |
